Measurements: patent publication US7815945B2, “Medicament for the prevention and treatment of influenza” (priority 2005, dated 2010)

System: A549 cells
Assay: Apoptotic caspase activation (Western blot for PARP cleavage)
Conditions: 48 h, extract 25 μg/ml and 50 μg/ml, staurosporine as positive control, FIG. 3

CN[C@@H]1C[C@H]2O[C@@](C)([C@@H]1OC)n1c3ccccc3c3c4c(c5c6ccccc6n2c5c31)C(=O)NC4 [staurosporine]
cleavage of the caspase substrate PARP (caspase activity): efficient cleavage of the caspase substrate
